{"source": "paper PMC11133798", "about": "“Vosoritide treatment for children with hypochondroplasia: a phase 2 trial” (eClinicalMedicine, 2024)", "key": {"urine cGMP": {"system": "urine cGMP", "experiment": "Urine cGMP after vosoritide injection, normalized to urine creatinine", "assay_type": "in vivo, human", "method": "(§1) Secondary outcomes included the change in body proportions as measured by sitting height to standing height ratio and arm span minus standing height, as well as the change in bone age to chronological age ratio after 12 months of therapy. Sitting height was measured three times at each visit using a sitting height table. The average of the three values was used. Sitting height to standing height ratio and arm span minus standing height were standardized for age and sex using available reference data and SDS were calculated.[11]^,[12] Bone age X-rays were read by a single reviewer who was blinded to participant ID, age and time point. Exploratory endpoints included pharmacokinetic parameters, pharmacodynamic markers including collagen X biomarker (CXM) levels and urine cGMP production, and changes in quality of life as measured by the QoLISSY scale.[13] CXM levels in serum were measured in duplicate via an ELISA assay at the Shriners Hospitals for Children in Portland, Oregon as previously described.[14] The average of the two values was used for analysis. Urine samples were obtained for cGMP measurement at baseline and 60, 120, and 240 min after vosoritide injections at the Day 1, Month 6 and Month 12 visits. cGMP levels were assayed at ICON Laboratories (Farmingdale, NY) and were normalized to urine creatinine levels at each time point."}, "[1]": {"system": "collagen X biomarker (CXM)", "experiment": "Serum collagen X biomarker (CXM) by ELISA", "assay_type": "in vivo, human", "method": "as §1"}, "[2]": {"system": "children with hypochondroplasia", "design": "species or system human", "settings": "in vivo", "excerpt": "The study has 3 prespecified co-primary outcomes: 1. To evaluate the safety and tolerability of daily subcutaneous injections of vosoritide administered for 12 months in patients with selected genetic causes of short stature, 2. To evaluate the change from baseline in age-sex standardized annualized growth velocity after 12 months of daily SC injections of vosoritide in patients with selected genetic causes of short stature, and 3. To evaluate the change from baseline in age-sex standardized height SDS after 12 months of daily SC injections of vosoritide in patients with selected genetic causes of short stature. Annualized growth velocity was standardized using data from the First Zurich Longitudinal Study of Growth and Development[9] as it includes growth velocity data starting at age 2.5 years. Height SDS was calculated using the United States CDC growth charts.[8] Hypochondroplasia specific height SDS was calculated using recently published hypochondroplasia growth curves.[10] To measure these outcomes, the following 3 co-primary endpoints were specified: 1. The incidence of adverse events per participant, 2. The change from baseline in age-sex standardized annualized growth velocity after 12 months of treatment, and 3. The change from baseline in age-sex standardized height SDS after 12 months of treatment. Height was measured five times at each study visit on a wall-mounted calibrated Harpenden stadiometer. The average of all five values was used. Safety assessments included routine laboratory evaluations at each visit, baseline and Month 12 echocardiograms, electrocardiograms at each visit, vital signs measurements, and spine X-rays at Day 1 and Month 12. No formal power calculations were done for this proof of principle study. Sample size was determined based on logistical feasibility. Medication adherence was calculated using the number of returned empty vials divided by the number of days of prescribed therapy. Demographics and clinical characteristics were summarized with mean and standard deviation (SD), median and interquartile (IQR) for numerical variables, frequency and proportion for categorical variables. Primary and secondary clinical outcomes were summarized with mean (SD) for the 6-month observation period and the 12-month treatment period. Paired t-tests were carried out to compare the difference between the treatment and observation periods. The corresponding p-value and 95% confidence interval (CI) were reported. Box and whisker plots were used for both primary endpoints (annualized growth velocity and height SDS) and exploratory endpoints (CXM and cGMP) to visualize the trends for the change from baseline to each of the follow-up visits. Safety data (AEs) were summarized as count and percentage of patients as well as the number of total occurrences per each listed AE for the observation period and the treatment period, respectively. As exploratory analyses, the primary endpoints were stratified based on age, baseline growth velocity and baseline height SDS. The summaries of mean (SD) for each visit, mean differences between treatment and observation periods, and the corresponding p-value and 95% CI were all reported. Parent reported quality of life using the […] scale was also reported with a similar tabular format. Data were analyzed using SAS for Windows version 9.4 (SAS Institute Inc., Cary, NC). A two-sided test with a significance level of 0.05 was used for all hypothesis tests."}}, "data": [{"sequence": "PGQEHPNARKYKGANKKGLSKGCFGLKLDRIGSMSGLGC (disulfide) [vosoritide, recombinant 39-amino-acid C-type natriuretic peptide analog expressed in E. coli, cyclic by an intramolecular disulfide bond]", "values": [{"measurement": "Average maximum cGMP increase from baseline across visits", "setting": "urine cGMP; Day 1, Month 6, Month 12 compared", "result": "not significantly different at Day 1, Month 6 or Month 12"}, {"measurement": "Time of peak urine cGMP after administration", "setting": "urine cGMP; samples at baseline, 60, 120 and 240 min after injection", "result": 2, "unit": "h"}, {"measurement": "Time to evident increase in urine cGMP after administration", "setting": "urine cGMP; samples at baseline, 60, 120 and 240 min after injection, Day 1, Month 6, Month 12", "result": "≤ 1", "unit": "h"}, {"measurement": "CXM levels, Month 6 versus Month 12 visit", "setting": "[1]; n=24, on treatment", "result": "no significant differences"}, {"measurement": "CXM, Month 12", "setting": "[1]; serum, ELISA in duplicate, 15 μg/kg/day SC, mean (SD), Day 1 22.48 (6.49), SD", "result": "41.62 (15.86) ng/ml"}, {"measurement": "Abdominal pain: # of patients", "setting": "[2]", "result": 5}, {"measurement": "Abdominal pain: # of total occurrences", "setting": "[2]", "result": 15}, {"measurement": "Abdominal pain: % of patients", "setting": "[2]", "result": 20.8, "unit": "%"}, {"measurement": "Any injection site reaction (overall): # of patients", "setting": "[2]", "result": 20}, {"measurement": "Any injection site reaction (overall): # of total occurrences", "setting": "[2]", "result": 329}, {"measurement": "Any injection site reaction (overall): % of patients", "setting": "[2]", "result": 83.3, "unit": "%"}, {"measurement": "Assay for drug induced anti-platelet antibodies", "setting": "[2]", "result": "negative"}, {"measurement": "Cough: # of patients", "setting": "[2]", "result": 12}, {"measurement": "Cough: # of total occurrences", "setting": "[2]", "result": 20}, {"measurement": "Cough: % of patients", "setting": "[2]", "result": 50.0, "unit": "%"}, {"measurement": "Diarrhea: # of patients", "setting": "[2]", "result": 2}, {"measurement": "Diarrhea: # of total occurrences", "setting": "[2]", "result": 3}, {"measurement": "Diarrhea: % of patients", "setting": "[2]", "result": 8.3, "unit": "%"}, {"measurement": "Discontinuation due to a treatment related adverse event", "setting": "[2]", "result": "No participants discontinued treatment"}, {"measurement": "Dizziness: # of patients", "setting": "[2]", "result": 3}, {"measurement": "Dizziness: # of total occurrences", "setting": "[2]", "result": 4}, {"measurement": "Dizziness: % of patients", "setting": "[2]", "result": 12.5, "unit": "%"}, {"measurement": "Ear infection: # of patients", "setting": "[2]", "result": 2}, {"measurement": "Ear infection: # of total occurrences", "setting": "[2]", "result": 2}, {"measurement": "Ear infection: % of patients", "setting": "[2]", "result": 8.3, "unit": "%"}, {"measurement": "Epistaxis: # of patients", "setting": "[2]", "result": 3}, {"measurement": "Epistaxis: # of total occurrences", "setting": "[2]", "result": 3}, {"measurement": "Epistaxis: % of patients", "setting": "[2]", "result": 12.5, "unit": "%"}, {"measurement": "Fever: # of patients", "setting": "[2]", "result": 13}, {"measurement": "Fever: # of total occurrences", "setting": "[2]", "result": 29}, {"measurement": "Fever: % of patients", "setting": "[2]", "result": 54.2, "unit": "%"}, {"measurement": "Headache: # of patients", "setting": "[2]", "result": 6}, {"measurement": "Headache: # of total occurrences", "setting": "[2]", "result": 17}, {"measurement": "Headache: % of patients", "setting": "[2]", "result": 25.0, "unit": "%"}, {"measurement": "Injection site bruising: # of patients", "setting": "[2]", "result": 6}, {"measurement": "Injection site bruising: # of total occurrences", "setting": "[2]", "result": 20}, {"measurement": "Injection site bruising: % of patients", "setting": "[2]", "result": 25.0, "unit": "%"}, {"measurement": "Injection site erythema: # of patients", "setting": "[2]", "result": 13}, {"measurement": "Injection site erythema: # of total occurrences", "setting": "[2]", "result": 113}, {"measurement": "Injection site erythema: % of patients", "setting": "[2]", "result": 54.2, "unit": "%"}, {"measurement": "Injection site pain: # of patients", "setting": "[2]", "result": 7}, {"measurement": "Injection site pain: # of total occurrences", "setting": "[2]", "result": 61}, {"measurement": "Injection site pain: % of patients", "setting": "[2]", "result": 29.2, "unit": "%"}, {"measurement": "Injection site swelling: # of patients", "setting": "[2]", "result": 13}, {"measurement": "Injection site swelling: # of total occurrences", "setting": "[2]", "result": 116}, {"measurement": "Injection site swelling: % of patients", "setting": "[2]", "result": 54.2, "unit": "%"}, {"measurement": "Injection site urticaria: # of patients", "setting": "[2]", "result": 7}, {"measurement": "Injection site urticaria: # of total occurrences", "setting": "[2]", "result": 19}, {"measurement": "Injection site urticaria: % of patients", "setting": "[2]", "result": 29.2, "unit": "%"}, {"measurement": "Laceration: # of patients", "setting": "[2]", "result": 3}, {"measurement": "Laceration: # of total occurrences", "setting": "[2]", "result": 3}, {"measurement": "Laceration: % of patients", "setting": "[2]", "result": 12.5, "unit": "%"}, {"measurement": "Nasopharyngitis: # of patients", "setting": "[2]", "result": 2}, {"measurement": "Nasopharyngitis: # of total occurrences", "setting": "[2]", "result": 2}, {"measurement": "Nasopharyngitis: % of patients", "setting": "[2]", "result": 8.3, "unit": "%"}, {"measurement": "Other Grade 3 or higher adverse events", "setting": "[2]", "result": "no other Grade 3 or higher adverse events"}, {"measurement": "Rash maculo-papular: # of patients", "setting": "[2]", "result": 2}, {"measurement": "Rash maculo-papular: # of total occurrences", "setting": "[2]", "result": 2}, {"measurement": "Rash maculo-papular: % of patients", "setting": "[2]", "result": 8.3, "unit": "%"}, {"measurement": "Rhinorrhea: # of patients", "setting": "[2]", "result": 6}, {"measurement": "Rhinorrhea: # of total occurrences", "setting": "[2]", "result": 6}, {"measurement": "Rhinorrhea: % of patients", "setting": "[2]", "result": 25.0, "unit": "%"}, {"measurement": "Scoliosis: # of patients", "setting": "[2]", "result": 3}, {"measurement": "Scoliosis: # of total occurrences", "setting": "[2]", "result": 3}, {"measurement": "Scoliosis: % of patients", "setting": "[2]", "result": 12.5, "unit": "%"}, {"measurement": "Severity and outcome of injection site reactions", "setting": "[2]", "result": "grade 1 or 2 and self-resolved"}, {"measurement": "Symptomatic hypotension", "setting": "[2]", "result": "no episodes of symptomatic hypotension"}, {"measurement": "Syncope", "setting": "[2]", "result": "One participant"}, {"measurement": "Upper respiratory tract infection: # of patients", "setting": "[2]", "result": 2}, {"measurement": "Upper respiratory tract infection: # of total occurrences", "setting": "[2]", "result": 2}, {"measurement": "Upper respiratory tract infection: % of patients", "setting": "[2]", "result": 8.3, "unit": "%"}, {"measurement": "Vomiting: # of patients", "setting": "[2]", "result": 11}, {"measurement": "Vomiting: # of total occurrences", "setting": "[2]", "result": 18}, {"measurement": "Vomiting: % of patients", "setting": "[2]", "result": 45.8, "unit": "%"}]}]}
